pIC50: −log10 of the molar value.
Test system: 598228-144-R-J1-PDC complex spheroid viability
Assay: Anticancer human tumor 598228-144-R-J1-PDC patient-derived serous endometrial adenocarcinoma cell line growth inhibition [GQUAD]
Conditions: for pIC50: curve of first compound; for viability, T/C: stronger effect = lower value
How it was run: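 Tumor cells were grown as complex spheroids with HUVEC endothelial cells and mesenchymal stem cells as stroma. G-quadruplex stabilizers were combined with targeted agents over half-log dilutions from near the clinical Cmax, or from 10 microM.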

[1] = second compound 0.0316 µM, first compound 0.0316 µM
[2] = second compound 0.0316 µM, first compound 0.1 µM
[3] = second compound 0.0316 µM, first compound 0.316 µM
[4] = second compound 0.0316 µM, first compound 1 µM
[5] = second compound 0.0316 µM, first compound 3.16 µM
[6] = second compound 0.0316 µM, first compound 10 µM
[7] = second compound 0.1 µM, first compound 0.0316 µM
[8] = second compound 0.1 µM, first compound 0.1 µM
[9] = second compound 0.1 µM, first compound 0.316 µM
[10] = second compound 0.1 µM, first compound 1 µM
[11] = second compound 0.1 µM, first compound 3.16 µM
[12] = second compound 0.1 µM, first compound 10 µM
[13] = second compound 0.316 µM, first compound 0.0316 µM
[14] = second compound 0.316 µM, first compound 0.1 µM
[15] = second compound 0.316 µM, first compound 0.316 µM
[16] = second compound 0.316 µM, first compound 1 µM
[17] = second compound 0.316 µM, first compound 3.16 µM
[18] = second compound 0.316 µM, first compound 10 µM
[19] = second compound 1 µM, first compound 0.0316 µM
[20] = second compound 1 µM, first compound 0.1 µM
[21] = second compound 1 µM, first compound 0.316 µM
[22] = second compound 1 µM, first compound 1 µM
[23] = second compound 1 µM, first compound 3.16 µM
[24] = second compound 1 µM, first compound 10 µM
[25] = second compound 3.16 µM, first compound 0.0316 µM
[26] = second compound 3.16 µM, first compound 0.1 µM
[27] = second compound 3.16 µM, first compound 0.316 µM
[28] = second compound 3.16 µM, first compound 1 µM
[29] = second compound 3.16 µM, first compound 3.16 µM
[30] = second compound 3.16 µM, first compound 10 µM
[31] = second compound 10 µM, first compound 0.0316 µM
[32] = second compound 10 µM, first compound 0.1 µM
[33] = second compound 10 µM, first compound 0.316 µM
[34] = second compound 10 µM, first compound 1 µM
[35] = second compound 10 µM, first compound 3.16 µM
[36] = second compound 10 µM, first compound 10 µM
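Also: spheroids exposed to the agents for one week before reading.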
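For viability, T/C in this document: percent of vehicle DMSO control viability so 100% = untreated growth.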

In the case of `COc1cccc2c1C(=O)c1c(O)c3c(c(O)c1C2=O)CC(O)(C(=O)CO)CC3OC1CC(N)C(O)C(C)O1` (stereo unspecified) + CN(C)c1ccc(Nc2c3ccc(NC(=O)CCN4CCCC4)cc3nc3cc(NC(=O)CCN4CCCC4)ccc23)cc1, the pIC50 (second compound 0.0316 µM) was 6.26, the pIC50 (second compound 0.1 µM) was 6.23 and the pIC50 (second compound 0.316 µM) was 6.21. It also gave a pIC50 (second compound 1 µM) of 6.18, a pIC50 (second compound 3.16 µM) of 6.11 and a pIC50 (second compound 10 µM) of 6.27. The viability, T/C [1] was 79.1%, the viability, T/C [2] was 83.3% and the viability, T/C [3] was 66.6%. For the same compound, the viability, T/C [4] was 31%, the viability, T/C [5] was 1.02% and the viability, T/C [6] was 0.57%. For the same compound, the viability, T/C [7] was 95.5%, the viability, T/C [8] was 84.8% and the viability, T/C [9] was 71%. For the same compound, the viability, T/C [10] was 33.5%, the viability, T/C [11] was 2.25% and the viability, T/C [12] was 0.29%. The viability, T/C [13] was 96.1%, the viability, T/C [14] was 73.2% and the viability, T/C [15] was 68.9%. For the same compound, the viability, T/C [16] was 42.2%, the viability, T/C [17] was 3.61% and the viability, T/C [18] was 0.89%. For the same compound, the viability, T/C [19] was 87.1%, the viability, T/C [20] was 73.7% and the viability, T/C [21] was 58.4%. It also gave a viability, T/C [22] of 51.9%, a viability, T/C [23] of 1.46% and a viability, T/C [24] of 1.05%. For the same compound, the viability, T/C [25] was 81.6%, the viability, T/C [26] was 80.1% and the viability, T/C [27] was 71.6%. For the same compound, the viability, T/C [28] was 44.3%, the viability, T/C [29] was 1.7% and the viability, T/C [30] was 0.36%. The viability, T/C [31] was 59.8%, the viability, T/C [32] was 64.5% and the viability, T/C [33] was 47.7%. The viability, T/C [34] was 42.3%, the viability, T/C [35] was 1.22% and the viability, T/C [36] was 0.77%.

`O=c1[nH]cc(F)c(=O)[nH]1` + Cc1[nH]c2ccc(F)cc2c1-c1nc2c3cccnc3c3ncccc3c2[nH]1 showed a pIC50 (second compound 0.0316 µM) of under 5.00, a pIC50 (second compound 0.1 µM) of under 5.00 and a pIC50 (second compound 0.316 µM) of under 5.00. For the same compound, the pIC50 (second compound 1 µM) was under 5.00, the pIC50 (second compound 3.16 µM) was over 7.50 and the pIC50 (second compound 10 µM) was under 5.00. It also gave a viability, T/C [1] of 106%, a viability, T/C [2] of 112% and a viability, T/C [3] of 90.2%. For the same compound, the viability, T/C [4] was 94.3%, the viability, T/C [5] was 89.6% and the viability, T/C [6] was 81.4%. For the same compound, the viability, T/C [7] was 97.4%, the viability, T/C [8] was 102% and the viability, T/C [9] was 85.1%. It also gave a viability, T/C [10] of 109%, a viability, T/C [11] of 91.8% and a viability, T/C [12] of 93.9%. For the same compound, the viability, T/C [13] was 98.6%, the viability, T/C [14] was 99.9% and the viability, T/C [15] was 74.9%. It also gave a viability, T/C [16] of 85.8%, a viability, T/C [17] of 70.4% and a viability, T/C [18] of 67.2%. It also gave a viability, T/C [19] of 57.5%, a viability, T/C [20] of 66.9% and a viability, T/C [21] of 58%. The viability, T/C [22] was 55.5%, the viability, T/C [23] was 54.5% and the viability, T/C [24] was 60.7%. The viability, T/C [25] was 38.1%, the viability, T/C [26] was 39.2% and the viability, T/C [27] was 49.5%. It also gave a viability, T/C [28] of 48.1%, a viability, T/C [29] of 48.8% and a viability, T/C [30] of 47%. It also gave a viability, T/C [31] of 66.8%, a viability, T/C [32] of 62.6% and a viability, T/C [33] of 63.8%. For the same compound, the viability, T/C [34] was 60.8%, the viability, T/C [35] was 57.4% and the viability, T/C [36] was 54.2%.

`CC[C@@]1(O)C(=O)OCc2c1cc1n(c2=O)Cc2cc3c(CN(C)C)c(O)ccc3nc2-1` + Cc1[nH]c2ccc(F)cc2c1-c1nc2c3cccnc3c3ncccc3c2[nH]1 was tested, and the pIC50 (second compound 0.0316 µM) was under 6.50, the pIC50 (second compound 0.1 µM) was under 6.50 and the pIC50 (second compound 0.316 µM) was under 6.50. It also gave a pIC50 (second compound 1 µM) of 7.64, a pIC50 (second compound 3.16 µM) of over 9.00 and a pIC50 (second compound 10 µM) of 7.51. For the same compound, the viability, T/C (second compound 0.0316 µM, first compound 0.000999 µM) was 106%, the viability, T/C (second compound 0.0316 µM, first compound 0.00316 µM) was 105% and the viability, T/C (second compound 0.0316 µM, first compound 0.00999 µM) was 93.5%. It also gave a viability, T/C [1] of 90.7%, a viability, T/C (second compound 0.0316 µM, first compound 0.0999 µM) of 63.1% and a viability, T/C [3] of 71.5%. It also gave a viability, T/C (second compound 0.1 µM, first compound 0.000999 µM) of 104%, a viability, T/C (second compound 0.1 µM, first compound 0.00316 µM) of 95.4% and a viability, T/C (second compound 0.1 µM, first compound 0.00999 µM) of 84.4%. For the same compound, the viability, T/C [7] was 88.7%, the viability, T/C (second compound 0.1 µM, first compound 0.0999 µM) was 58% and the viability, T/C [9] was 62.3%. The viability, T/C (second compound 0.316 µM, first compound 0.000999 µM) was 86.8%, the viability, T/C (second compound 0.316 µM, first compound 0.00316 µM) was 83.7% and the viability, T/C (second compound 0.316 µM, first compound 0.00999 µM) was 61.9%. It also gave a viability, T/C [13] of 64.6%, a viability, T/C (second compound 0.316 µM, first compound 0.0999 µM) of 75% and a viability, T/C [15] of 52.3%. The viability, T/C (second compound 1 µM, first compound 0.000999 µM) was 64.6%, the viability, T/C (second compound 1 µM, first compound 0.00316 µM) was 76.8% and the viability, T/C (second compound 1 µM, first compound 0.00999 µM) was 59.3%. For the same compound, the viability, T/C [19] was 44.7%, the viability, T/C (second compound 1 µM, first compound 0.0999 µM) was 53.4% and the viability, T/C [21] was 41.2%. The viability, T/C (second compound 3.16 µM, first compound 0.000999 µM) was 39.1%, the viability, T/C (second compound 3.16 µM, first compound 0.00316 µM) was 57.1% and the viability, T/C (second compound 3.16 µM, first compound 0.00999 µM) was 39.9%. The viability, T/C [25] was 35.7%, the viability, T/C (second compound 3.16 µM, first compound 0.0999 µM) was 33.6% and the viability, T/C [27] was 31.4%. It also gave a viability, T/C (second compound 10 µM, first compound 0.000999 µM) of 71.6%, a viability, T/C (second compound 10 µM, first compound 0.00316 µM) of 58.9% and a viability, T/C (second compound 10 µM, first compound 0.00999 µM) of 63.3%. The viability, T/C [31] was 41.5%, the viability, T/C (second compound 10 µM, first compound 0.0999 µM) was 50.1% and the viability, T/C [33] was 34.7%.
